Data taken from patent publication US20070129367A1, “Pyridine derivatives as cb2 receptor modulators” (priority 2002, published 2007).

Target: T1, human cannabinoid CB2 receptor (Homo sapiens, UniProt P34972)
T1 construct: expressed in transfected cells; host or cells: Saccharomyces cerevisiae strain MMY23 (cassette integrated at the ura3 locus, GPD promoter)
Assay: Cannabinoid CB2 receptor agonist activity in yeast (Saccharomyces cerevisiae) cells expressing the receptor, FDGlu fluorescence readout;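 on Emax: percent of the maximal response of the reference agonist HU210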
Format: cell-based
Conditions: for Emax: read-out: efficacy (Emax) at the cloned human cannabinoid CB2 receptor
Method: Determination of Cannabinoid CB2 Receptor Agonist Activity
The cannabinoid CB2 receptor agonist activity of the compounds of formula (I) was determined in accordance with the following experimental method.
Yeast (Saccharomyces cerevisiae) cells expressing the human cannabinoid CB2 receptor were generated by integration of an expression cassette into the ura3 chromosomal locus of yeast strain MMY23. This cassette consisted of DNA sequence encoding the human CB2 receptor flanked by the yeast GPD promoter to the 5′ end of CB2 and a yeast transcriptional terminator sequence to the 3′ end of CB2. MMY23 expresses a yeast/mammalian chimeric G-protein alpha subunit in which the C-terminal 5 amino acids of Gpa1 are replaced with the C-terminal 5 amino acids of human Gαi3 (as described in Brown et aL (2000), Yeast 16:11-22). Cells were grown at 30° C. in liquid Synthetic Complete (SC) yeast media (Guthrie and Fink (1991), Methods in Enzymology, Vol. 194) lacking uracil, tryptophan, adenine and leucine to late logarithmic phase (approximately 6 OD600/ml).
Agonists were prepared as 10 mM stocks in DMSO. […] Agonist solutions in DMSO (1% final assay volume) were transferred into black, clear bottom, microtitre plates from NUNC (96- or 384-well). […] This mixture (50 ul per well for 384-well plates, 200 ul per well for 96-well plates) was added to agonist in the assay plates (Multidrop 384, Labsystems). After incubation at 30° C. for 24 hours, fluorescence resulting from degradation of FDGlu to fluorescein due to exoglucanase, an endogenous yeast enzyme produced during agonist-stimulated cell growth, was determined using a Spectrofluor microtitre plate reader (Tecan; excitation wavelength: 485 nm; emission wavelength: 535 nm). Fluorescence was plotted against compound concentration and iteratively curve fitted using a four parameter fit to generate a concentration effect value. […] Equieffective molar ratio (EMR) values were calculated from the equation EMR=EC50 [compound X]/EC50 [HU210]
Where EC50 [compound X] is the EC50 of compound X and EC50 [HU210] is the EC50 of HU210.

T1 sequence (P34972 whole entry): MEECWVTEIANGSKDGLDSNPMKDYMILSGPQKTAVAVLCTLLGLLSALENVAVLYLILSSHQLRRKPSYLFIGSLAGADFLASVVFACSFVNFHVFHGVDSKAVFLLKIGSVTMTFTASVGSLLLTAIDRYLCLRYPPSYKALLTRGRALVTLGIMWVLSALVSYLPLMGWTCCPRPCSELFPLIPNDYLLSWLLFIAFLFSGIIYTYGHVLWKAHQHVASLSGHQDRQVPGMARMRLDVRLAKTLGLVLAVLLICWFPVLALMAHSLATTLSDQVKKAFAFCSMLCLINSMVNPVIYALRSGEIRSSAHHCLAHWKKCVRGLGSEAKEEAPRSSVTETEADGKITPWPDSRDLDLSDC

SMILES | EC50 | Emax
CC(C)c1cc(Nc2cccc(Cl)c2F)ncc1C(=O)NCc1ccc(F)cc1 [Example 26, 6-(3-Chloro-2-fluoro-phenylamino)-N-(4-fluoro-benzyl)-4-isopropyl-nicotinamide] | 0.3 to 1 µM | > 50%
O=C(NCc1ccc(F)cc1)c1cnc(Nc2cccc(F)c2)cc1C(F)(F)F [Example 49, N-(4-Fluoro-benzyl)-6-(3-fluoro-phenylamino)-4-trifluoromethyl-nicotinamide] | < 0.3 µM | > 50%
Cc1c(Cl)cccc1Nc1cc(C(C)C)c(C(=O)NCc2ccc(F)cc2)cn1 [Example 28, 6-(3-Chloro-2-methyl-phenylamino)-N-(4-fluoro-benzyl)-4-isopropyl-nicotinamide] | 0.3 to 1 µM | > 50%
CC(C)c1cc(Nc2cc(Cl)ccc2Cl)ncc1C(=O)NCc1ccc(F)cc1 [Example 74, 6-(2,5-Dichloro-phenylamino)-N-(4-fiuoro-benzyl)-4-isopropyl-nicotinamide] | 0.3 to 1 µM | > 50%
Cc1ccc(Cl)cc1Nc1cc(C(F)(F)F)c(C(=O)NCc2ccncc2)cn1 [Example 57, N-(Pyridin-4-ylmethyl)-6-(2-methyl-5-chloro-phenylamino)-4-trifluoromethyl-nicotinamide] | < 0.3 µM | > 50%
CC(C)c1cc(Nc2ccc(Cl)cc2F)ncc1C(=O)NCc1ccc(F)cc1 [Example 20, 6-(4-Chloro-2-fluoro-phenylamino)-N-(4-fluoro-benzyl)-4-isopropyl-nicotinamide] | < 0.3 µM | > 50%
CC(C)c1cc(Nc2ccc(F)cc2Cl)ncc1C(=O)NCc1ccc(F)cc1 [Example 71, 6-(2-Chloro-4-fluoro-phenylamino)-N-(4-fluoro-benzyl)-4-isopropyl-nicotinamide] | < 0.3 µM | > 50%
Cc1cc(Cl)ccc1Nc1cc(C(F)(F)F)c(C(=O)NCc2ccncc2)cn1 [Example 58, N-(Pyridin-4-ylmethyl)-6-(2-methyl-4-chloro-phenylamino)-4-trifluoromethyl-nicotinamide] | < 0.3 µM | > 50%
CC(C)c1cc(Nc2ccc(Cl)cc2Cl)ncc1C(=O)NCc1ccc(F)cc1 [Example 22, 6-(2,4-Dichloro-phenylamino)-N-(4-fluoro-benzyl)-4-isopropyl-nicotinamide] | < 0.3 µM | > 50%
CC(C)c1cc(Nc2cccc(OC(F)(F)F)c2)ncc1C(=O)NCc1ccc(F)cc1 [Example 25, N-(4-Fluoro-benzyl)-4-isopropyl-6-(3-trifluoromethoxy-phenylamino)-nicotinamide] | 0.3 to 1 µM | > 50%
O=C(NCc1ccc(F)cc1)c1cnc(Nc2cccc(Cl)c2)cc1C(F)(F)F [Example 44, N-(4-Fluoro-benzyl)-6-(3-chloro-phenylamino)-4-trifluoromethyl-nicotinamide] | < 0.3 µM | > 50%
Cc1cccc(Nc2cc(C(C)C)c(C(=O)NCc3ccc(F)cc3)cn2)c1 [Example 29, N-(4-Fluoro-benzyl)-4-isopropyl-6-m-tolylamino-nicotinamide] | 0.3 to 1 µM | > 50%
